Where two headings read alike, the source gives them in different places.
Columns and labels:
[1] = Clarity of test compound solutions at […] (aqueous solubility); conditions: for solubility at 24 h: pH 4, aqueous buffer; for Aqueous Solubility pH~7 (visual clarity): […] active-form equivalents, pH 7 (50 mM phosphate), after 24 hours
Protocol: A 50-mg/mL solution of a compound of formula (I) or a compound of formula (II) in H2O was titrated with 0.1 M NaOH until pH reached 5.7-6.1. Any solid that precipitated was filtered. The remaining solutions or phase-separated oil/H2O mixtures were freeze-dried to produce zwitterions as fluffy solids.
The aqueous solubility of Compounds #14, #15 and #16 were determined by a modified procedure. In these cases, the samples were targeted at a pH of 4 and 7 and were measured exclusively using 100 mM phosphate buffers. For both pH's, measured samples were initially prepared at ˜3 mg/ml and ˜10 mg/ml concentrations and for samples that dissolved rapidly, additional compound was added to the solution until saturated solutions were obtained.

[2] = system: Staphylococcus aureus (OC8525), a methicillin-resistant strain (MRSA); experiment: In vivo efficacy in a mouse systemic infection model; conditions: for ED50: Staphylococcus aureus, 72 h, Swiss Webster mice infected i.p. with MRSA, 3 day survival, normalized to parent content; for % Survival: i.v., single dose level, mice
Protocol: Female Swiss Webster mice weighing between 20-25 g were infected intraperitoneally with approximately 5×10^5 colony forming units (CFU) Staphylococcus aureus (OC8525), a methicillin-resistant strain (MRSA), in 7% mucin. One hour later, the animals were given the test compound intravenously or orally in a dose volume of 0.2 mL. Each animal test group consisted of eight animals. The test compounds were prepared immediately before dosing in 5% dextrose in water (D5W) and diluted further in D5W for i.v. and p.o. administration. The mice were observed over a three day period and ED50 values were calculated from the resulting % survival curves (see Table 13, below). The measured ED50 values were normalized to the content of (E)-7-(3-(2-amino-1-fluoroethylidene)piperidin-1-yl)-1-cyclopropyl-6-fluoro-8-methoxy-4-oxo-1,4-dihydroquinoline-3-carboxylic acid. For some compounds, in vivo efficacy was determined by testing a group of eight mice at a single dose level only. In these cases, the data presented in Table 13, below are reported as percent survival at the designated dose.

[3] = 50 mM citrate buffer, thermodynamic from solid
[4] = oral dose 1 h later, read-out: ED50 p.o.
[5] = iv, i.v. dose 1 h later, read-out: ED50 i.v.

SMILES | solubility at 24 h [1, 3] [µg/mL] | Aqueous Solubility pH~7 (visual clarity) [1] | ED50 [2, 4] [mg/kg] | ED50 [2, 5] [mg/kg] | also measured
CN[C@@H](C)C(=O)NC/C(F)=C1/CCCN(c2c(F)cc3c(=O)c(C(=O)O)cn(C4CC4)c3c2OC)C1.Cl [Compound 7, 1-Cyclopropyl-6-fluoro-7-{3-[1-fluoro-2-((2S)-2-methylamino-propionylamino)-ethylidene]-piperidin-1-yl}-8-methoxy-4-oxo-1,4-dihydro-quinoline-3-carboxylic acid hydrochloride] | > 3300 | Yes |  |  | % Survival ([2]; at 2.1 mg/kg/day): 0% at 2.1 mg/kg/day
COc1c(N2CCC/C(=C(\F)CNC(=O)OCc3oc(=O)oc3C)C2)c(F)cc2c(=O)c(C(=O)O)cn(C3CC3)c12 [Compound 8, 1-Cyclopropyl-6-fluoro-7-{3-[1-fluoro-2-(5-methyl-2-oxo-[1,3]dioxol-4-ylmethoxycarbonylamino)-ethylidene]-piperidin-1-yl}-8-methoxy-4-oxo-1,4-dihydro-quinoline-3-carboxylic acid] | < 3300 | No |  |  | 
COc1c(N2CCC/C(=C(\F)CNC(=O)[C@@H](N)CCCCN)C2)c(F)cc2c(=O)c(C(=O)O)cn(C3CC3)c12.Cl.Cl [Compound 9, 1-Cyclopropyl-7-{3-[2-((2S)-2,6-diamino-hexanoylamino)-1-fluoro-ethylidene]-piperidin-1-yl}-6-fluoro-8-methoxy-4-oxo-1,4-dihydro-quinoline-3-carboxylic acid dihydrochloride] | > 3300 | Yes |  |  | % Survival ([2]; at 1.9 mg/kg/day): 25% at 1.9 mg/kg/day
COc1c(N2CCC/C(=C(\F)CNC(=O)[C@H](CC(C)C)NC(=O)[C@H](C)N)C2)c(F)cc2c(=O)c(C(=O)O)cn(C3CC3)c12.Cl [Compound 10, 7-(3-{2-[(2S)-2-((2S)-2-Amino-propionylamino)-4-methyl-pentanoylamino]-1-fluoro-ethylidene}-piperidin-1-yl)-1-cyclopropyl-6-fluoro-8-methoxy-4-oxo-1,4-dihydro-quinoline-3-carboxylic acid hydrochloride] | < 3300 | No |  |  | % Survival ([2]; at 2.4 mg/kg/day): 25% at 2.4 mg/kg/day
CCOC(=O)c1cn(C2CC2)c2c(OC)c(N3CCC/C(=C(\F)CN)C3)c(F)cc2c1=O.Cl [Compound 11, 7-[3-(2-Amino-1-fluoro-ethylidene)-piperidin-1-yl]-1-cyclopropyl-6-fluoro-8-methoxy-4-oxo-1,4-dihydro-quinoline-3-carboxylic acid ethyl ester hydrochloride] | < 3300 | No | 6.7 | 1.2 | 
CCOP(=O)(NCC(F)=C1CCCN(c2c(F)cc3c(=O)c(C(=O)[O-])cn(C4CC4)c3c2OC)C1)OCC.[Na+] [Compound 13, 1-Cyclopropyl-7-{3-[2-(diethoxy-phosphorylamino)-1-fluoro-ethylidene]-piperidin-1-yl}-6-fluoro-8-methoxy-4-oxo-1,4-dihydro-quinoline-3-carboxylic acid sodium salt] |  |  |  |  | solubility at 24 h ([1]; thermodynamic from solid): < 3300 µg/mL; solubility ([1]; pH 7.8, aqueous buffer, thermodynamic from solid): 1800 µg/mL; % Survival ([2]; at 3.8 mg/kg/day): 12.5% at 3.8 mg/kg/day

Now from value to compound, other results behind:

solubility at 24 h [1, 3] [µg/mL] | Aqueous Solubility pH~7 (visual clarity) [1] | SMILES | ED50 [2, 4] [mg/kg] | ED50 [2, 5] [mg/kg] | also measured
< 3300 | No | COc1c(N2CCC/C(=C(\F)CNC(=O)[C@H](C)NC(=O)[C@H](C)N)C2)c(F)cc2c(=O)c(C(=O)O)cn(C3CC3)c12.Cl [Compound 2, 7-(3-{2-[(2S)-2-((2S)-2-Amino-propionylamino)-propionylamino]-1-fluoro-ethylidene}-piperidin-1-yl)-1-cyclopropyl-6-fluoro-8-methoxy-4-oxo-1,4-dihydro-quinoline-3-carboxylic acid hydrochloride] | > 14.9 | 2.6 | 
< 3300 | No | COc1c(N2CCC/C(=C(\F)CNC(=O)[C@@H](N)Cc3ccccc3)C2)c(F)cc2c(=O)c(C(=O)O)cn(C3CC3)c12.Cl [Compound 3, 7-{3-[2-((2S)-2-Amino-3-phenyl-propionylamino)-1-fluoro-ethylidene]-piperidin-1-yl}-1-cyclopropyl-6-fluoro-8-methoxy-4-oxo-1,4-dihydro-quinoline-3-carboxylic acid hydrochloride] | > 14.8 | 1.4 | 
< 3300 | No | COc1c(N2CCC/C(=C(\F)CNC(=O)[C@@H](N)CC(=O)O)C2)c(F)cc2c(=O)c(C(=O)O)cn(C3CC3)c12.Cl [Compound 5, 7-{3-[2-((2S)-2-Amino-3-carboxy-propionylamino)-1-fluoro-ethylidene]-piperidin-1-yl}-1-cyclopropyl-6-fluoro-8-methoxy-4-oxo-1,4-dihydro-quinoline-3-carboxylic acid hydrochloride] | > 15.7 | > 3.9 | 

Reference: patent US20110172193A1, “PRO-DRUGS OF (E)-7-(3-(2-AMINO-1-FLUOROETHYLIDENE)PIPERIDIN-1-YL)-1-CYCLOPROPYL-6-FLUORO-8-METHOXY-4-OXO-1,4-DIHYDROQUINOLINE-3-CARBOXYLIC ACID” (priority 2010, published 2011)
